Measurements from patent US8278459B2, “UV-filter compounds” (DSM IP Assets B.V., priority 2007, dated 2012).

Experiment: Skin binding experiment (pig ear skin, THF extraction, HPLC recovery)
Assay type: in vitro ADME
Details: for % UV filter bound to the skin: 2% (w) THF solution applied topically at 1 mg/cm^2, 32±1° C., duplicates
Method: The skin binding properties were determined by the following experiment. Skin samples (1 cm^2 each) were prepared by punching out from pig ear. The skin samples were placed in a 2 mL eppendorf plastic tube. The studied compounds were applied topically as a 2% (w) THF solution on the skin surface at a mean dose rate of 1 mg/cm^2. The samples were placed in a heatingblock and maintained at a normal skin temperature of 32±1° C. for the duration of the exposure period. At the end of the experiment, after 24 hours, respectively 72 h, each skin probe was extracted by shaking with 1000 μl of THF for 1 min and the resulting solution was analyzed by HPLC. The experiments were run in duplicates.
Compounds B and was tested for their skin-binding capacity, while compound A (described in Kawashita, Y; Nakamichi, N.; Kawabata, H.; Hayashi, M. Org. Lett. 2003, 5, 3713-3715) was used as a non-binding reference.
Skin fraction samples were injected into the HPLC system using DAD detection with the following conditions:
The % of UV filter bound to the skin was determined by calculation of the recovery rate using the following equation: […]

Row | Structure (SMILES) | % UV filter bound to the skin (After 24 h) | % UV filter bound to the skin (After 72 h) | adhesion to the skin (in words) (compared to the non-binding compound A)
1 | Cc1ccc(-c2nc3ccccc3o2)cc1 [Compound A, reference compound] | 36.3% | 61.1% | 
2 | O=C(CO)C(O)C(O)c1ccc(-c2nc3ccccc3o2)cc1 (centres unmarked) [Compound B, 4-(4-Benzoxazol-2-yl-phenyl)-1,3,4-trihydroxy-butan-2-one] | 96.6% | 100% | significant adhesion to the skin
